In PubChem BioAssay (NCI):
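These data come from cells grown in 96-well plates and exposed to compound for 48 hours at five concentrations. GI50 marks 50% less growth. At the TGI there is no net growth.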

What was measured:
Experiment in all cases: NCI tumour cell line growth inhibition, 48 h
[1] = test system: CCRF-CEM leukemia
[2] = test system: K-562 leukemia
[3] = test system: MOLT-4 leukemia
[4] = test system: OVCAR-8 ovarian
[5] = test system: SF-268 CNS
[6] = test system: SN12C renal
[7] = test system: TK-10 renal
[8] = test system: HCC-2998 colon
[9] = test system: CAKI-1 renal
[10] = test system: OVCAR-5 ovarian

| Compound | TGI [1] [µM] | TGI [2] [µM] | TGI [3] [µM] | TGI [4] [µM] | TGI [5] [µM] | TGI [6] [µM] | TGI [7] [µM] | TGI [8] [µM] | TGI [9] [µM] | TGI [10] [µM] | GI50 [9] [µM] | GI50 [8] [µM] | GI50 [2] [µM] | GI50 [3] [µM] | GI50 [10] [µM] | GI50 [4] [µM] | GI50 [5] [µM] | GI50 [6] [µM] | GI50 [7] [µM] | GI50 [1] [µM] |
| --- | --- | --- | --- | --- | --- | --- | --- | --- | --- | --- | --- | --- | --- | --- | --- | --- | --- | --- | --- | --- |
| Cc1cccc(NC(=O)CSc2nnc(-c3ccc(N=Cc4ccc(Cl)cc4)cc3)o2)c1 | > 100 | > 100 | > 100 | > 100 | > 100 | > 100 | > 100 |  |  |  |  |  |  |  |  |  |  |  |  |  |
| Cc1ccc(-n2cc(/C(N)=N/O)c3ccccc3c2=O)cc1 | > 100 | > 100 | > 100 | > 100 | > 100 | > 100 | > 100 | > 100 |  |  |  |  |  |  |  |  |  |  |  |  |
| CC1(C)N=C(N)N=C(N)N1c1ccc(CCCCCCc2ccc(S(=O)(=O)F)cc2)cc1 |  | > 33.3 |  | 7.01 | 31.3 | 7.02 | 15.9 | 16 | 44.3 | 15 |  |  |  |  |  |  |  |  |  |  |
| C=C1CCC2C(C)(CO)C(O)CCC2(C)C1C/C=C1\C(=O)OCC1O (stereo unspecified) | > 100 | > 100 | > 100 | 22.6 | > 100 | 35.8 | > 100 | 50.6 |  | 31.1 |  |  |  |  |  |  |  |  |  |  |
| Cc1cc2nc3c(C(OC4OC(CO)C(O)C(O)C4O)C(O)CO)nn(-c4ccc(F)cc4)c3nc2cc1C (stereo unspecified) | > 100 | > 100 | > 100 | > 100 | > 100 | > 100 | > 100 | > 100 |  | > 100 |  |  |  |  |  |  |  |  |  |  |
| C=C(c1ccc(C(=O)NCCCn2ccnc2)cc1)c1cc2c(cc1C)C(C)(C)CCC2(C)C |  | > 100 | > 100 | 10.7 | > 100 | 10.8 | 7.87 | 3.85 | > 51.2 | 12.7 | 1.47 | 0.419 | 0.651 | 2.65 | 0.953 | 2.95 | 3.83 | < 0.0195 | 2.97 |  |
| O=C([CH-]C(=O)c1ccccc1)c1ccccc1.[CH2-]C.[CH2-]C.[Tl+3] |  | 59.6 | 41.8 | > 86.5 | > 100 | > 100 | > 100 | > 100 | > 96.3 | > 100 | 27.2 | 28.7 | 9.92 | 6.63 | 40.5 | 15.7 | 18.4 | 14.4 | 55 |  |
| COc1cc([C@H]2c3cc4c(cc3[C@H](NCc3ccc(F)cc3)C3COC(=O)[C@H]32)OCO4)cc(OC)c1O (stereo partly specified) | > 100 | 41 | 6.42 | 35.1 | > 100 | 6.67 | 41.4 | 23.8 |  | 30.9 |  |  |  |  |  |  |  |  |  |  |
| C#CCN(CCCOc1ccc(Cl)cc1Cl)CCCSC(=O)CCCCCN1/C(=C\C=C2/CCCC(/C=C/C3=[N+](CCCCCC(=O)[O-])c4ccccc4C3(C)C)=C2Cl)C(C)(C)c2ccccc21 | 4.38 | > 100 | > 100 | 6.83 | 6.74 | 2.74 | 5.17 | 3.51 |  | 3.92 |  | 1.78 | 0.667 | 1.48 | 1.78 | 1.99 | 1.84 | 0.587 | 2.21 | 0.344 |
| CCCCCCC1CCCCN1C(c1ccccc1)C(O)c1ccccc1 (stereo unspecified) |  | 21.7 | 19.4 | 31.5 | 23.1 | 20.3 | 27.6 | 10.4 | 14.6 | 22 | 3.72 | 3.65 | 4.23 | 4.96 | 10.1 | 14.8 | 10.9 | 6.5 | 14.2 |  |
| NC(=O)C1C(=O)Oc2cccnc21 (stereo unspecified) | > 100 | > 100 | > 100 | > 100 |  | > 100 | > 100 |  |  |  |  |  |  |  |  |  |  |  |  |  |
| COc1cc(COC(=O)N(C)[C@@H](Cc2ccccc2)C(=O)O)c([N+](=O)[O-])cc1OC | > 100 | > 100 | > 100 | > 100 | > 100 | > 100 |  | > 100 |  | > 100 |  |  |  |  |  |  |  |  |  |  |
| Cc1cn([C@H]2CN(O)C[C@@H](CO)O2)c(=O)[nH]c1=O |  | > 100 | > 100 | > 100 | > 100 | > 100 | > 100 | > 100 | > 100 | > 100 |  |  |  |  |  |  |  |  |  |  |
| CN(C)CCC(/C=C/c1ccccc1)=N\Nc1c(F)c(F)c(F)c(F)c1F | > 100 | > 100 | > 100 | > 100 | > 100 | > 100 | > 100 |  |  | > 100 |  |  |  |  |  |  |  |  |  |  |
| Cc1cc(N(CCC#N)CCC#N)ccc1/C=C1N=C(/C=C\c2ccccc2)N(c2ccc(C(=O)O)cc2)C\1=O | > 100 | > 100 | > 100 | > 100 | > 100 | > 100 | > 100 |  | > 100 | > 100 |  |  |  |  |  |  |  |  |  |  |
| CSc1ccc2c(c1)N(CCCN(C)C)c1ccccc1S2 | 23.4 | 17 | 20 | 36.1 | 27.2 | 28.5 | 28.3 |  | 21.2 | 30.9 |  |  |  |  |  |  |  |  |  |  |
